Here are results for 19 compounds from ChEMBL document CHEMBL3352703, “Sulfamates of methyl triterpenoates are effective and competitive inhibitors of carbonic anhydrase II” (Eur J Med Chem, 2014).

In one experiment the target is Carbonic anhydrase 2 (Bos taurus, UniProt P00921). Briefly: Inhibition of bovine erythrocyte carbonic anhydrase 2 using 4-nitrophenyl acetate substrate by photometric assay.
A short description of experiment [1]: Cytotoxicity against mouse NIH/3T3 cells after 96 hrs by SRB assay. The note with it: NIH3T3, 96 h. The format is cell-based. In general terms: Sulforhodamine B stains cellular protein and so reports cell mass.

Chain of Carbonic anhydrase 2 (P00921 whole entry): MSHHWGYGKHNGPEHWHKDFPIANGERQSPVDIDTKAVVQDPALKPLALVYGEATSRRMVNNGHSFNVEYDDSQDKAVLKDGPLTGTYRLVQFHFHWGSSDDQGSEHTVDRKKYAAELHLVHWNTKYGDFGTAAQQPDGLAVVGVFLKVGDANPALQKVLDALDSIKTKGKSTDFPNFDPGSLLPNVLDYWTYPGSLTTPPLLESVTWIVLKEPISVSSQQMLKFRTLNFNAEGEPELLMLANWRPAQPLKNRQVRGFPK

Consider `COC(=O)[C@@]1(C)CC[C@]2(C)CC[C@]3(C)C(=CC(=O)[C@@H]4[C@@]5(C)CC[C@H](O)C(C)(C)[C@@H]5CC[C@]43C)[C@@H]2C1`, for which the Ki at Carbonic anhydrase 2 was over 10 µM.

Consider `COC(=O)[C@@]1(C)CC[C@]2(C)CC[C@]3(C)C(=CC[C@@H]4[C@@]5(C)CC[C@H](O)C(C)(C)[C@@H]5CC[C@]43C)[C@@H]2C1`, for which the Ki on Carbonic anhydrase 2 is over 10 µM.

In the case of `COC(=O)[C@]12CCC(C)(C)C[C@H]1C1=CC(=O)[C@@H]3[C@@]4(C)CC[C@H](O)C(C)(C)[C@@H]4CC[C@@]3(C)[C@]1(C)CC2`, on Carbonic anhydrase 2, the Ki is over 50 µM.

For the compound `COC(=O)[C@]12CC[C@@H](C(C)=O)[C@@H]1[C@H]1CC[C@@H]3[C@@]4(C)CC[C@H](O)C(C)(C)[C@@H]4CC[C@@]3(C)[C@]1(C)CC2`, on Carbonic anhydrase 2, the Ki was over 5 µM.

With `COC(=O)[C@]12CC[C@@H](C)[C@H](C)[C@H]1C1=CC(=O)[C@@H]3[C@@]4(C)CC[C@H](O)C(C)(C)[C@@H]4CC[C@@]3(C)[C@]1(C)CC2`, the Ki at Carbonic anhydrase 2 was over 50 µM.

Compound `COC(=O)[C@]12CCC(C)(C)C[C@H]1C1=CC[C@@H]3[C@@]4(C)CC[C@H](OS(N)(=O)=O)C(C)(C)[C@@H]4CC[C@@]3(C)[C@]1(C)CC2` showed a Ki at Carbonic anhydrase 2 of 0.308 µM. Besides, the IC50 in experiment [1] worked out at 12.8 µM.

In the case of `COC(=O)[C@]12CC[C@@H](C)[C@H](C)[C@H]1C1=CC[C@@H]3[C@@]4(C)CC[C@H](OS(N)(=O)=O)C(C)(C)[C@@H]4CC[C@@]3(C)[C@]1(C)CC2`, affinity at Carbonic anhydrase 2 was put at a Ki of 1.11 µM. In experiment [1], this compound registered an IC50 of 22.8 µM.

For `C=C(C)[C@@H]1CC[C@]2(C(=O)OC)CC[C@]3(C)[C@H](CC[C@@H]4[C@@]5(C)CC[C@H](OS(N)(=O)=O)C(C)(C)[C@@H]5CC[C@]43C)[C@@H]12`, the Ki on Carbonic anhydrase 2 came to 2.16 µM. For the same compound, the midpoint of inhibition in experiment [1], the IC50, lay at 9.8 µM.

For `COC(=O)[C@@]1(C)CC[C@]2(C)CC[C@]3(C)C(=CC(=O)[C@@H]4[C@@]5(C)CC[C@H](OS(N)(=O)=O)C(C)(C)[C@@H]5CC[C@]43C)[C@@H]2C1`, the Ki at Carbonic anhydrase 2 is 1.51 µM. The IC50 in experiment [1] was over 30 µM.

On Carbonic anhydrase 2, `COC(=O)[C@@]1(C)CC[C@]2(C)CC[C@]3(C)C(=CC[C@@H]4[C@@]5(C)CC[C@H](OS(N)(=O)=O)C(C)(C)[C@@H]5CC[C@]43C)[C@@H]2C1` came in with a Ki of over 4 µM. Besides, in experiment [1], the IC50 was over 30 µM.

For the compound `COC(=O)[C@]12CC[C@@H](C(C)=O)[C@@H]1[C@H]1CC[C@@H]3[C@@]4(C)CC[C@H](OS(N)(=O)=O)C(C)(C)[C@@H]4CC[C@@]3(C)[C@]1(C)CC2`, on Carbonic anhydrase 2, the Ki was determined as 1.74 µM. Further, the IC50 in experiment [1] is over 30 µM.

As for `COC(=O)[C@]12CCC(C)(C)C[C@H]1C1=CC[C@@H]3[C@@]4(C)C[C@@H](OS(N)(=O)=O)[C@H](O)C(C)(C)[C@@H]4CC[C@@]3(C)[C@]1(C)CC2`, at Carbonic anhydrase 2, the inhibition constant (Ki) was over 20 µM. This compound also showed an IC50 in experiment [1] of 12.6 µM.

For `COC(=O)[C@]12CCC(C)(C)C[C@H]1C1=CC[C@@H]3[C@@]4(C)C[C@@H](O)[C@H](OS(N)(=O)=O)C(C)(C)[C@@H]4CC[C@@]3(C)[C@]1(C)CC2`, the affinity on Carbonic anhydrase 2, expressed as Ki, was 1.41 µM. Further, it took 2.2 µM to reach half-maximal inhibition in experiment [1] (IC50).

`COC(=O)[C@]12CCC(C)(C)C[C@H]1C1=CC(=O)[C@@H]3[C@@]4(C)CC[C@H](OS(N)(=O)=O)C(C)(C)[C@@H]4CC[C@@]3(C)[C@]1(C)CC2` returned a Ki at Carbonic anhydrase 2 of 1.49 µM. Besides, it took 25.9 µM to reach half-maximal inhibition in experiment [1] (IC50).

`COC(=O)[C@]12CC[C@@H](C)[C@H](C)[C@H]1C1=CC(=O)[C@@H]3[C@@]4(C)CC[C@H](OS(N)(=O)=O)C(C)(C)[C@@H]4CC[C@@]3(C)[C@]1(C)CC2`: the Ki at Carbonic anhydrase 2 is over 15 µM. Also, 25.9 µM corresponded to half-maximal inhibition in experiment [1] (IC50).

On Carbonic anhydrase 2, `COC(=O)[C@]12CCC(C)(C)C[C@H]1C1=CC[C@@H]3[C@@]4(C)C[C@@H](O)[C@H](O)C(C)(C)[C@@H]4CC[C@@]3(C)[C@]1(C)CC2` [MASLINIC ACID METHYL ESTER] displayed a Ki of over 25 µM.

Compound `C=C(C)[C@@H]1CC[C@]2(C(=O)OC)CC[C@]3(C)[C@H](CC[C@@H]4[C@@]5(C)CC[C@H](O)C(C)(C)[C@@H]5CC[C@]43C)[C@@H]12` [METHYL BETULINATE] returned a Ki on Carbonic anhydrase 2 of over 50 µM.

For the compound `COC(=O)[C@]12CCC(C)(C)C[C@H]1C1=CC[C@@H]3[C@@]4(C)CC[C@H](O)C(C)(C)[C@@H]4CC[C@@]3(C)[C@]1(C)CC2` [METHYL OLEANOLATE], at Carbonic anhydrase 2, the Ki was over 10 µM.

For `COC(=O)[C@]12CC[C@@H](C)[C@H](C)[C@H]1C1=CC[C@@H]3[C@@]4(C)CC[C@H](O)C(C)(C)[C@@H]4CC[C@@]3(C)[C@]1(C)CC2` [METHYL URSOLATE], the Ki on Carbonic anhydrase 2 is over 10 µM.

What is called Ki is a dissociation constant, usually derived from enzyme kinetics or from competition with a known ligand. As usually defined, the IC50 is the concentration at which inhibition is half-maximal. A lower IC50 goes with greater potency.
